Source: ChEMBL document CHEMBL5543174, “A Nonbactericidal Anionic Antimicrobial Peptide Provides Prophylactic and Therapeutic Efficacies against Bacterial Infections in Mice by Immunomodulatory-Antithrombotic Duality” (J Med Chem, 2024)
The source made the active and inactive calls.

Legend:
Lymphocyte = test: Immunomodulatory activity in mouse mesenteric lymph node derived lymphocyte assessed as increase in lymphocyte proliferation at < 200 ug/ml incubated for 24 hrs by CCK-8 assay; format: functional, cell-based; settings: dose < 200.0 µg/ml
Serum = test: Immunomodulatory activity in mouse serum assessed as change on C3a level at 25 to 200 ug/ml incubated for 1 hr by ELISA based complement assay; format: functional, cell-free; settings: dose 25-200 µg/ml
[1] = tested on: Staphylococcus haemolyticus; test: Antimicrobial activity against Staphylococcus haemolyticus ATCC 29970 assessed as inhibition of microbial growth at <= 200 ug/ml incubated for 18 hrs by micro-broth dilution method; format: functional, organism-based; settings: dose <= 200.0 µg/ml
Bacillus subtilis = test: Antimicrobial activity against Bacillus subtilis ATCC6633 assessed as inhibition of microbial growth at <= 200 ug/ml incubated for 18 hrs by micro-broth dilution method; format: functional, organism-based; settings: dose <= 200.0 µg/ml
Nakaseomyces glabratus = test: Antimicrobial activity against Candida glabrata ATCC 66032 assessed as inhibition of microbial growth at <= 200 ug/ml incubated for 18 hrs by micro-broth dilution method; format: functional, organism-based; settings: dose <= 200.0 µg/ml
Escherichia coli [2] = test: Antibacterial activity against Escherichia coli ATCC 25922 infected in C57BL/6 mouse assessed as reduction in bacterial load at 10 mg/kg,ip administrated 5 hrs after bacterial infection; format: functional, organism-based
Escherichia coli [3] = test: Antibacterial activity against Escherichia coli ATCC 25922 infected in C57BL/6 mouse assessed as reduction in TNF-alpha level in peritoneal fluid at 10 mg/kg,ip pre-administrated 5 hrs before bacterial infection measured after 24 hrs by ELISA; format: functional, organism-based; settings: time 29.0 hrs
Escherichia coli [4] = test: Antibacterial activity against Escherichia coli ATCC 25922 infected in C57BL/6 mouse assessed as reduction in IL-1beta level in peritoneal fluid at 10 mg/kg,ip pre-administrated 5 hrs before bacterial infection measured after 24 hrs by ELISA; format: functional, organism-based; settings: time 29.0 hrs
Escherichia coli [5] = test: Antibacterial activity against Escherichia coli ATCC 25922 infected in C57BL/6 mouse assessed as reduction in IL-6 level in serum at 10 mg/kg,ip administrated 5 hrs after bacterial infection measured after 24 hrs by ELISA; format: functional, organism-based; settings: time 19.0 hrs
Staphylococcus aureus [6] = test: Antibacterial activity against Methicillin-resistant Staphylococcus aureus infected in C57BL/6 mouse assessed as reduction in TNF-alpha level in serum at 10 mg/kg,ip administrated 5 hrs after bacterial infection measured after 24 hrs by ELISA; format: functional, organism-based; settings: time 19.0 hrs
Staphylococcus aureus [7] = test: Antibacterial activity against Methicillin-resistant Staphylococcus aureus infected in C57BL/6 mouse assessed as reduction in IL-1beta level in serum at 10 mg/kg,ip administrated 5 hrs after bacterial infection measured after 24 hrs by ELISA; format: functional, organism-based; settings: time 19.0 hrs
Escherichia coli [8] = test: Antibacterial activity against Carbapenem-resistant Escherichia coli infected in C57BL/6 mouse assessed as reduction in TNF-alpha level in serum at 10 mg/kg,ip pre-administrated 5 hrs before bacterial infection measured after 24 hrs by ELISA; format: functional, organism-based; settings: time 29.0 hrs
Escherichia coli [9] = test: Antibacterial activity against Escherichia coli ATCC 25922 infected in C57BL/6 mouse assessed as reduction in inflammatory injury in lung at 10 mg/kg,ip pre-administrated 5 hrs before bacterial infection measured after 24 hrs by hematoxylin and eosin staining based analysis; format: functional, organism-based; settings: time 29.0 hrs
Staphylococcus aureus [10] = test: Antibacterial activity against Methicillin-resistant Staphylococcus aureus infected in C57BL/6 mouse assessed as increase in survival rate at 10 mg/kg,ip administrated 5 hrs after bacterial infection measured after 7 days; format: functional, organism-based; settings: time 7.0 day
Mus musculus [11] = test: Immunomodulatory activity in cyclophosphamide immunosuppressed C57BL/6 mouse with neutrophil depletion model assessed as increase in number of neutrophil in peritoneal lavage at 10 mg/kg,ip administration measured after 5 hrs by flow cytometry; format: functional, organism-based
Mus musculus [12] = test: Immunomodulatory activity in clodronate liposome immunosuppressed C57BL/6 mouse with neutrophil depletion model assessed as change in B-lymphocytes in peritoneal lavage at 10 mg/kg,ip administration measured after 5 to 24 hrs by flow cytometry; format: functional, organism-based; settings: time 5-24 hrs
Peritoneal macrophage [13] = test: Induction of chemotaxis in mouse Peritoneal macrophage assessed as upregulation of MCP-1 gene expression incubated for 6 hrs by qPCR analysis; format: functional, cell-based
[14] = tested on: Peritoneal macrophage cell; test: Induction of chemotaxis in mouse Peritoneal macrophage assessed as upregulation of CXCL2 expression incubated for 6 hrs by ELISA; format: functional, cell-based
Mus musculus [15] = test: Induction of chemotaxis in C57BL/6 mouse assessed as upregulation of CXCL2 expression in peritoneal lavage at 10 mg/kg,ip administration measured at 5 to 24 hrs by ELISA; format: functional, organism-based; settings: time 5-24 hrs
Peritoneal macrophage [16] = test: Immunomodulatory activity in mouse Peritoneal macrophage assessed as decrease in LTA-induced TNF-alpha production at 25 to 100 ug/ml incubated for 6 hrs by ELISA; format: functional, cell-based; settings: dose 25-100 µg/ml
[17] = tested on: Peritoneal macrophage cell; test: Induction of phagocytosis in mouse Peritoneal macrophage assessed as increase in neutral red dye uptake by measuring optical density absorbance at 100 ug/ml incubated for 24 hrs followed by dye addition measured after 4 hrs by absorbance based assay (reference value: 0.089); format: functional; settings: dose 100 µg/ml; time 28 hrs
Neutrophil [18] = test: Induction of phagocytosis in mouse bone marrow derived neutrophil cultured with CFSE-labeled Carbapenem-resistant Escherichia coli incubated for 1.5 hrs followed by bacterial exposure for 1 hr by flow cytometry; format: functional, cell-based; settings: time 2.5 hrs
Neutrophil [19] = test: Induction of degranulation in mouse bone marrow derived neutrophil assessed as increase in BD-2 release at 25 to 100 ug/ml incubated for 6 hrs by ELISA; format: functional, cell-based; settings: dose 25-100 µg/ml
Neutrophil [20] = test: Induction of degranulation in mouse bone marrow derived neutrophil assessed as increase in MMP-9 release at 25 to 100 ug/ml incubated for 6 hrs by ELISA; format: functional, cell-based; settings: dose 25-100 µg/ml
[21] = tested on: Peritoneal macrophage cell; test: Induction of chemotaxis in mouse Peritoneal macrophage assessed as increase in macrophage migration at 100 ug/ml preincubated with KN62 for 30 mins followed by compound addition measured after 8 hrs by crystal violet staining based indirect transwell assay; format: functional, cell-based; settings: dose 100.0 µg/ml
[22] = tested on: Peritoneal macrophage cell; test: Induction of chemotaxis in mouse Peritoneal macrophage assessed as upregulation of CXCL1 production at 100 ug/ml preincubated with MTS510 followed by compound addition by ELISA; format: functional, cell-based; settings: dose 100.0 µg/ml
Peritoneal macrophage [23] = test: Induction of chemotaxis in mouse Peritoneal macrophage assessed as upregulation of CXCL2 production at 100 ug/ml preincubated with MTS510 followed by compound addition by ELISA; format: functional, cell-based; settings: dose 100.0 µg/ml
Peritoneal macrophage [24] = test: Immunoregulatory activity in mouse Peritoneal macrophage assessed as change in total JNK expression at 25 to 100 ug/ml incubated for 1 hr by Western blotting analysis; format: functional, cell-based; settings: dose 25-100 µg/ml
Mus musculus [25] = test: Antithrombotic activity in carrageenan-induced tail thrombosis BALB/c mouse model assessed as reduction in thrombus length at 10 mg/kg,ip administration measured for 6 to 48 hrs; format: functional, organism-based; settings: time 6-48 hrs
Mus musculus [26] = test: Anticoagulation activity in mouse assessed as change in plasma APC expression at 10 mg/kg,ip measured after 24 hrs by ELISA; format: functional, organism-based
Mus musculus [27] = test: Anticoagulation activity in mouse infected with Methicillin-resistant Staphylococcus aureus assessed as increase in plasma TFPI expression at 10 mg/kg,ip administrated 5 hrs after bacterial infection measured after 24 hrs by ELISA; format: functional, organism-based; settings: time 19.0 hrs

CC[C@H](C)[C@H](NC(=O)[C@@H]1CSSC[C@H](NC(=O)[C@H](CCC(=O)O)NC(=O)[C@@H](NC(=O)[C@H](CCCCN)NC(=O)[C@H](Cc2c[nH]cn2)NC(=O)[C@@H](NC(=O)[C@H](CCCCN)NC(=O)[C@H](CCC(=O)O)NC(=O)[C@H](C)NC(=O)[C@H](CCC(=O)O)NC(=O)[C@H](CCC(=O)O)NC(=O)[C@H](CCC(=O)O)NC(=O)[C@H](C)N)[C@@H](C)O)[C@@H](C)O)C(=O)N[C@@H](CC(C)C)C(=O)N[C@@H](CCC(=O)O)C(=O)N1)C(=O)N[C@@H](Cc1ccccc1)C(=O)N[C@H](C(=O)N[C@@H](CC(C)C)C(=O)N[C@@H](CC(C)C)C(=O)N1CCC[C@H]1C(=O)N1CCC[C@@H]1C(=O)N[C@H](C)C(=O)O)[C@@H](C)O
inactive: Activity (Lymphocyte) | Activity (Serum) | Activity [1] | Activity (Bacillus subtilis) | Activity (Nakaseomyces glabratus) | Activity (Mus musculus [12]) | Activity (Mus musculus [15]) | Activity (Peritoneal macrophage [16]) | Activity (Neutrophil [19]) | Activity (Neutrophil [20]) | Activity (Peritoneal macrophage [24]) | Activity (Mus musculus [26])
active: Activity (Escherichia coli [2]) | Activity (Escherichia coli [3]) | Activity (Escherichia coli [4]) | Activity (Escherichia coli [5]) | Activity (Staphylococcus aureus [6]) | Activity (Staphylococcus aureus [7]) | Activity (Escherichia coli [8]) | Activity (Escherichia coli [9]) | Activity (Staphylococcus aureus [10]) | Activity (Mus musculus [11]) | Activity (Peritoneal macrophage [13]) Dose-Dependent Effect | Activity [14] Dose-Dependent Effect | Activity (Neutrophil [18]) Dose-Dependent Effect | Activity [21] | Activity [22] | Activity (Peritoneal macrophage [23]) | Activity (Mus musculus [25]) | Activity (Mus musculus [27])
0.111: OD [17]
